In assay [1] the target is T1, MCT1 (Rattus norvegicus, UniProt P53987).
T1 sequence (P53987 1-494): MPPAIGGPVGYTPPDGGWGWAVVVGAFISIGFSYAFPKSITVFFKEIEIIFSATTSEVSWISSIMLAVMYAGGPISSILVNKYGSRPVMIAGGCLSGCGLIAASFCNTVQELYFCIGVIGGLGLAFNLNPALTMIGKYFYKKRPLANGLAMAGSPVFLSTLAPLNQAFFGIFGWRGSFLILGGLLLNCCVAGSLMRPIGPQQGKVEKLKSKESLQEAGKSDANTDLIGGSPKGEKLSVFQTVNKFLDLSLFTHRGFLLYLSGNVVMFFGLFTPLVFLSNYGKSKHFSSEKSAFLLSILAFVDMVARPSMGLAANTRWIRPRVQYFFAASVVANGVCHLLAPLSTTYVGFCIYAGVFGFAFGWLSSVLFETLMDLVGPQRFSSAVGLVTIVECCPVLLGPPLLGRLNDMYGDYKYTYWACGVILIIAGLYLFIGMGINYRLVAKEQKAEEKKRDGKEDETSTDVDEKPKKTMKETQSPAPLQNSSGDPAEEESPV
The format is cell-based. The settings on record: read-out: % inhibition (irreversible) at 0.2 mM.

For assay [2], the target named is T1, MCT1. Briefly: inhibition of L-[…]lactate uptake in Xenopus oocytes, DIDS present in assay. The format is cell-based. The settings on record: read-out: % inhibition (reversible) at 0.2 mM.

Read-outs that look alike come from different tables or passages of the source.

`O=S(=O)(O)c1cc(N=C=S)ccc1/C=C/c1ccc(N=C=S)cc1S(=O)(=O)O` [DIDS]: the inhibition at 200 µM on MCT1 [1] and at MCT1 [2] was approximately 60% each time.

The record behind these values is paper PMC2740427 (The Journal of Biological Chemistry, 2009).
